Reference: the supplement of paper PMC10307832

How the values were obtained:
Assay in all cases: relative viability (nuclei count vs DMSO), 5 days (fraction); higher = more cells survive
[1] = compound: COc1cc2c(Oc3ccc4[nH]c(C)cc4c3F)ncnc2cc1OCCCN1CCCC1 [Cediranib] + Nc1nc2[nH]cc(CCc3ccc(C(=O)N[C@@H](CCC(=O)O)C(=O)O)cc3)c2c(=O)[nH]1 [Pemetrexed] (partner 0.2 µM)
Method in brief: (§1)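 Each reported value is a median over duplicate plates. It expresses relative viability: treated-well nuclei count divided by vehicle-well nuclei count. Lung cancer cell lines in 1536-well plates were dosed by pin tool a day after seeding, alone with one drug or with a fixed anchor-drug dose plus five library-drug doses (not always all listed) in √10 steps, and nuclei were counted after 5 days.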

[2] = compound: COc1cc2c(Oc3ccc4[nH]c(C)cc4c3F)ncnc2cc1OCCCN1CCCC1 [Cediranib] + C[C@]1(O)C[C@@H](c2nc(-c3ccc4ccc(-c5ccccc5)nc4c3)c3c(N)nccn32)C1 [Linsitinib] (partner 1 µM)
Method in brief: as §1

[3] = compound: Nc1ncn([C@H]2C[C@H](O)[C@@H](CO)O2)c(=O)n1 [Decitabine] + CS(=O)(=O)N1CCN(Cc2cc3nc(-c4cccc5[nH]ncc45)nc(N4CCOCC4)c3s2)CC1 [Pictilisib] (partner 1 µM)
Method in brief: as §1

[4] = compound: COc1cc2c(Oc3ccc4[nH]c(C)cc4c3F)ncnc2cc1OCCCN1CCCC1 [Cediranib] + CC(C)C[C@H](NC(=O)[C@H](Cc1ccccc1)NC(=O)c1cnccn1)B(O)O [Bortezomib] (partner 0.002 µM)
Method in brief: as §1

## NCI-H3122
[1]; first compound 0.04 µM
  relative viability: 0.227
[1]; first compound 0.1265 µM
  relative viability: 0.238
[1]; first compound 0.4 µM
  relative viability: 0.191
[1]; first compound 1.265 µM
  relative viability: 0.203
[1]; first compound 4 µM
  relative viability: 0.216
[2]; first compound 0.04 µM
  relative viability: 1.01
[2]; first compound 0.1265 µM
  relative viability: 1.07
[2]; first compound 0.4 µM
  relative viability: 0.986
[2]; first compound 1.265 µM
  relative viability: 1.02
[2]; first compound 4 µM
  relative viability: 1.03
[3]; first compound 0.04 µM
  relative viability: 0.64
[3]; first compound 0.1265 µM
  relative viability: 0.564
[3]; first compound 0.4 µM
  relative viability: 0.399
[3]; first compound 1.265 µM
  relative viability: 0.571
[3]; first compound 4 µM
  relative viability: 0.517
[4]; first compound 0.04 µM
  relative viability: 0.996
[4]; first compound 0.1265 µM
  relative viability: 0.967
[4]; first compound 0.4 µM
  relative viability: 1.01
[4]; first compound 1.265 µM
  relative viability: 1.06
[4]; first compound 4 µM
  relative viability: 1

## PC-3 [JPC-3]
[1]; first compound 0.04 µM
  relative viability: 1.03
[1]; first compound 0.4 µM
  relative viability: 1.08
[1]; first compound 1.265 µM
  relative viability: 1.17
[1]; first compound 4 µM
  relative viability: 0.96
[2]; first compound 0.04 µM
  relative viability: 0.991
[2]; first compound 0.1265 µM
  relative viability: 0.942
[2]; first compound 0.4 µM
  relative viability: 0.907
[2]; first compound 1.265 µM
  relative viability: 0.93
[2]; first compound 4 µM
  relative viability: 1.04
[3]; first compound 0.1265 µM
  relative viability: 0.733
[3]; first compound 0.4 µM
  relative viability: 0.434
[3]; first compound 1.265 µM
  relative viability: 0.609
[3]; first compound 4 µM
  relative viability: 0.646
[4]; first compound 0.04 µM
  relative viability: 0.844
[4]; first compound 0.1265 µM
  relative viability: 0.829
[4]; first compound 0.4 µM
  relative viability: 0.844
[4]; first compound 1.265 µM
  relative viability: 0.924
[4]; first compound 4 µM
  relative viability: 0.809

## PC-14
[1]; first compound 0.04 µM
  relative viability: 0.0843
[1]; first compound 0.1265 µM
  relative viability: 0.143
[1]; first compound 0.4 µM
  relative viability: 0.13
[1]; first compound 1.265 µM
  relative viability: 0.131
[1]; first compound 4 µM
  relative viability: 0.146
[2]; first compound 0.04 µM
  relative viability: 0.935
[2]; first compound 0.1265 µM
  relative viability: 0.986
[2]; first compound 0.4 µM
  relative viability: 0.905
[2]; first compound 1.265 µM
  relative viability: 0.897
[2]; first compound 4 µM
  relative viability: 0.965
[3]; first compound 0.04 µM
  relative viability: 0.0668
[3]; first compound 0.1265 µM
  relative viability: 0.749
[3]; first compound 0.4 µM
  relative viability: 0.348
[3]; first compound 1.265 µM
  relative viability: 0.28
[3]; first compound 4 µM
  relative viability: 0.11
[4]; first compound 0.04 µM
  relative viability: 0.889
[4]; first compound 0.1265 µM
  relative viability: 0.831
[4]; first compound 0.4 µM
  relative viability: 0.734
[4]; first compound 1.265 µM
  relative viability: 0.878
[4]; first compound 4 µM
  relative viability: 0.902

## RERF-LC-KJ
[1]; first compound 0.04 µM
  relative viability: 0.488
[1]; first compound 0.1265 µM
  relative viability: 0.346
[1]; first compound 0.4 µM
  relative viability: 0.444
[1]; first compound 1.265 µM
  relative viability: 0.514
[1]; first compound 4 µM
  relative viability: 0.479
[2]; first compound 0.04 µM
  relative viability: 0.909
[2]; first compound 0.1265 µM
  relative viability: 0.862
[2]; first compound 0.4 µM
  relative viability: 0.869
[2]; first compound 1.265 µM
  relative viability: 0.871
[2]; first compound 4 µM
  relative viability: 0.907
[3]; first compound 0.04 µM
  relative viability: 0.508
[3]; first compound 0.1265 µM
  relative viability: 0.607
[3]; first compound 0.4 µM
  relative viability: 0.403
[3]; first compound 1.265 µM
  relative viability: 0.368
[3]; first compound 4 µM
  relative viability: 0.354
[4]; first compound 0.04 µM
  relative viability: 1.09
[4]; first compound 0.4 µM
  relative viability: 1.04
[4]; first compound 1.265 µM
  relative viability: 1.11
[4]; first compound 4 µM
  relative viability: 1.17

## SK-LU-1
[1]; first compound 0.04 µM
  relative viability: 1.11
[1]; first compound 0.1265 µM
  relative viability: 1.01
[1]; first compound 0.4 µM
  relative viability: 0.969
[1]; first compound 1.265 µM
  relative viability: 0.956
[1]; first compound 4 µM
  relative viability: 1.18
[2]; first compound 0.04 µM
  relative viability: 1.18
[2]; first compound 0.1265 µM
  relative viability: 1.04
[2]; first compound 0.4 µM
  relative viability: 0.979
[2]; first compound 1.265 µM
  relative viability: 1.06
[2]; first compound 4 µM
  relative viability: 1.07
[3]; first compound 0.04 µM
  relative viability: 0.53
[3]; first compound 0.1265 µM
  relative viability: 0.447
[3]; first compound 0.4 µM
  relative viability: 0.306
[3]; first compound 1.265 µM
  relative viability: 0.365
[3]; first compound 4 µM
  relative viability: 0.282
[4]; first compound 0.04 µM
  relative viability: 1.22
[4]; first compound 0.1265 µM
  relative viability: 1.24
[4]; first compound 0.4 µM
  relative viability: 1.13
[4]; first compound 1.265 µM
  relative viability: 0.956
[4]; first compound 4 µM
  relative viability: 1.17

## SW 1573
[1]; first compound 0.04 µM
  relative viability: 0.981
[1]; first compound 0.1265 µM
  relative viability: 0.954
[1]; first compound 0.4 µM
  relative viability: 0.844
[1]; first compound 1.265 µM
  relative viability: 0.826
[1]; first compound 4 µM
  relative viability: 0.908
[2]; first compound 0.04 µM
  relative viability: 0.71
[2]; first compound 0.1265 µM
  relative viability: 0.698
[2]; first compound 0.4 µM
  relative viability: 0.743
[2]; first compound 1.265 µM
  relative viability: 0.754
[2]; first compound 4 µM
  relative viability: 0.861
[3]; first compound 0.04 µM
  relative viability: 0.535
[3]; first compound 0.1265 µM
  relative viability: 0.425
[3]; first compound 0.4 µM
  relative viability: 0.491
[3]; first compound 1.265 µM
  relative viability: 0.279
[3]; first compound 4 µM
  relative viability: 0.202
[4]; first compound 0.04 µM
  relative viability: 1.1
[4]; first compound 0.1265 µM
  relative viability: 1.04
[4]; first compound 0.4 µM
  relative viability: 0.899
[4]; first compound 1.265 µM
  relative viability: 1.05
[4]; first compound 4 µM
  relative viability: 1.09
